{
  "source": "patent US8946162B2",
  "about": "“Treatment of tumors” (priority 2008, dated 2015)",
  "key": {"Ang II [1]": {"test_system": "Ang II", "details": "reaction conditions identical; material expressed in insect cells; cited from earlier work"}, "human tumour cell line": {"test_system": "human tumour cell line", "assay": "Suppression of tumour cell growth (cell count in haemocytometer)", "format": "cell-based", "details": "up to day 17; for cell growth (cell count): culture medium RPMI 1640 10% FCS supplemented with the substance alone (100 nM peptide or 20 μg/ml sACE2), versus control medium", "procedure": "A human tumour cell line was sowed at a density of 2.5×10^4 cells/ml in 200 μl RPMI 1640 in 10% FCS in 96-well plates and incubated at 37° C. and 5% CO2. The influence of various active components of the RAS were evaluated using the following test systems. All the analyses were carried out as triple determinations (sACE2=soluble ACE2 without C-terminal membrane domain): • Condition A. Culture medium RPMI 1640 with 10% FCS as control • Condition B. Culture medium supplemented with 100 nM Ang II • Condition C. Culture medium supplemented with 100 nM Ang 1-7 • Condition D. Culture medium supplemented with 20 μg/ml sACE2 • Condition E. Culture medium supplemented with 20 μg/ml sACE2 and […]\nEvery day 100 μl of medium was removed and replaced by the same volume of fresh specific medium. The cell count was determined on days 2, 3, 6, 8, 10, 13, 15 and 17 by multiple counting in a haemocytometer. A separately prepared test plate was used for each determination."}, "[2]": {"assay": "Terminal half-life measured in various species", "format": "in vivo", "details": "including rhesus monkeys", "source_text": "ACE2 is metabolised slowly due to the large, highly branched and complex sugar moiety."}, "Ang II [3]": {"test_system": "Ang II", "assay": "Determination of specific ACE2 activity (conversion of Ang II to Ang 1-7, RP-HPLC)", "format": "biochemical", "procedure": "Furthermore, both Ang II and Ang 1-7 peaks were recognised and integrated in the chromatograms. The peptide concentrations were determined using calibration curves. Enzymatic conversion and specific enzyme activity were also determined."}, "[4]": {"assay": "Aggregation of the ACE2 preparation in physiological buffer", "format": "physicochemical", "details": "concentrated protein solution in physiological buffer", "source_text": "The dimer-ACE2 preparation produced according to Example 1 is present as a stable, highly pure and concentrated protein solution in physiological buffer and can be stored and administered […].\nThe ACE2 preparation also has full enzyme activity."}, "[5]": {"details": "250 ng/ml ACE2, 80 μM Ang II, pH 6.5, 18 minutes at 37° C."}},
  "data": [
    {"substance": "ACE2 (Vickers et al.): ACE2 of Vickers et al., expressed in insect cells, same amino acid sequence, glycosylated to a considerably lesser extent", "values": [
      {"measurement": "catalytic ACE2 activity published by Vickers et al.", "setting": "Ang II [1]", "result": 3.5, "unit": "s⁻¹"}
    ]},
    {"substance": "ACE2 preparation produced according to Example 1: Soluble section of human ACE2 expressed in CHO, fully N-glycosylated, obtained as a dimer with two Zn2+", "values": [
      {"measurement": "cell growth (cell count)", "setting": "human tumour cell line", "result": "marginally increased growth"},
      {"measurement": "cell growth (cell count) in the presence of Ang II", "setting": "human tumour cell line; culture medium supplemented with 20 μg/ml sACE2 and […]", "result": "reduced cell growth"},
      {"measurement": "terminal half-life", "setting": "[2]", "result": "at least 10.5 hours"},
      {"measurement": "catalytic activity kkat based on Ang II conversion", "setting": "Ang II [3]; [5]", "result": "8.0 ± 0.3", "unit": "s⁻¹"},
      {"measurement": "catalytic activity kkat in relation to Ang 1-7 conversion", "setting": "Ang II [3]; [5]", "result": "8.8 ± 0.2", "unit": "s⁻¹"},
      {"measurement": "higher activity than the figures of Vickers et al.", "setting": "Ang II [3]; present preparation versus Vickers material", "result": 240, "unit": "%"},
      {"measurement": "aggregation to multimers", "setting": "[4]", "result": "does not exhibit any aggregation to multimers"}
    ]},
    {"substance": "Ang 1-7: Effector peptide of the RAS, antagonist of Ang II, formed from Ang II by ACE2 (DRVYIHP; Angiotensin 1-7; UniProt P01019 25-31, looked up) [reference compound]", "values": [
      {"measurement": "cell growth (cell count)", "setting": "human tumour cell line", "result": "reduced cell growth"}
    ]},
    {"substance": "Asp-Arg-Val-Tyr-Ile-His-Pro-Phe (DRVYIHPF; printed: Asp-Arg-Val-Tyr-Ile-His-Pro-Phe) [Ang II, reference compound]", "values": [
      {"measurement": "cell growth (cell count)", "setting": "human tumour cell line", "result": "distinctly increased cell growth"}
    ]}
  ]
}
